Read-outs that look alike come from different tables or passages of the source.
Key:
[1] = test system: heart rate; type: in vivo, cat; conditions: maximum effect, FIG. 1
Description: This selection of the dose is based on the result shown in FIG. 1, wherein the reduction of heart rate is plotted against the applied dose of the drug (open circles: zatebradine; filled circles: cilobradine). […] Therefore, by choosing these doses, it can already be assumed that the pharmacological effect on heart rate of cilobradine is better than the pharmacological effect of zatebradine.

[2] = test system: cat eyes; assay: Electroretinogram (ERG) response to sinusoidally modulated luminances recorded from cat eyes; type: in vivo
Protocol: The content of these references, and more particularly the experimental parts described therein, are herein incorporated by reference.
These studies were based on a measurement of the electroretinogram (ERG) responses recorded from cat eyes, in normal conditions and after administration of zatebradine.
In the following experiment, the same experiment was performed using cilobradine, and the results compared to the results obtained with zatebradine.

[3] = test system: heart rate; type: in vivo; conditions: rat
Protocol: A further similar experiment was performed in order to compare the visual side-effect of cilobradine and zatebradine in conditions where the drugs are pharmacologically effective in reducing heart rate. The aim of this experiment was to compare the visual side-effect of both drugs in another experimental animal model, namely on the retinal system of the rat. Furthermore, the aim of this experiment was also to compare the visual side-effect of both drugs in acute and in chronic (over two weeks) drug treatment conditions.
The ERG measurements were made 30 minutes after injection of the drug. The measured heart rate frequency was:
The ERG measurement was made 30 minutes after injection of the drug. The measured heart rate frequency was:
(§1) The ERG measurement was made after the 2 weeks treatment.

[4] = test system: retinal system of the rat; assay: Electroretinogram (ERG) responses from anesthetized pigmented rats as a function of stimulus frequency; type: in vivo; conditions: for effect on the ERG (visual side-effect): 30 minutes after injection
Description: The aim of this experiment was to compare the visual side-effect of both drugs in another experimental animal model, namely on the retinal system of the rat. Furthermore, the aim of this experiment was also to compare the visual side-effect of both drugs in acute and in chronic (over two weeks) drug treatment conditions.
The principle of this experiment is again the same as the principle of the experiment performed by Gargini et al. and published in Vision research, vol.
The results of the experiment are visualized by plotting the measurement of the first amplitude of the Fourier transform of the ERG as a function of the applied stimulus frequency (oscillating light stimulus of high luminance and contrast).
The ERG measurements were made 30 minutes after injection of the drug.
The ERG measurement was made 30 minutes after injection of the drug.
as §1

[5] = test system: hyperpolarisation activated, cAMP-modulated cation current channels (HCN) in cardiac conductive tissue; conditions: cited from earlier work
[6] = test system: cat eyes; conditions: cited from earlier work
[7] = test system: patients with heart failure; conditions: Shinke et al. 1997; cited from earlier work

| SMILES | reduction of the heart rate ([1]; dose of 0.75 mg/kg body weight) | ERG response (visual side-effect) ([2]; after injection of 0.75 mg/kg body weight, FIG. 3) | measured heart rate frequency ([3]; acute treatment 0.3 mg/kg, 30 minutes after injection, control 400, FIG. 4) | measured heart rate frequency ([3]; acute treatment 1 mg/kg, 30 minutes after injection, control 400, FIG. 4) | measured heart rate frequency ([3]; acute treatment 3 mg/kg, 30 minutes after injection, control 400, FIG. 4) | measured heart rate frequency ([3]; chronic treatment 2 weeks, FIG. 7, table row prints 1 mg/kg, text says double dose of 3 mg/kg per day, control 350) | measured heart rate frequency ([3]; chronic treatment, single dose 1 mg/kg per day during 2 weeks, control 400, FIG. 6) | visual side-effects ([4]; acute as well as chronic (2 weeks) treatment, FIGS. 4 and 6) | effect on the ERG (visual side-effect) ([4]; acute treatment 0.3, 1 and 3 mg/kg, FIG. 4) | block of HCN channels responsible for the current If [5] | reduction of the heart rate ([1]; dose of 2.5 mg/kg body weight) | ERG response (visual side-effect) ([2]; 15 minutes after 2.5 mg/kg body weight i.v. injection, FIG. 2) | ERG response (visual side-effect) ([2]; 5 hours after injection of 2.5 mg/kg body weight, FIG. 2) | measured heart rate frequency ([3]; acute treatment, single dose 3 mg/kg, 30 minutes after injection, control 428, FIG. 5) | effect on the ERG (visual side-effect) ([4]; acute treatment, single dose 3 mg/kg, FIG. 5) | ERG response amplitude ([6]; after administration of zatebradine, Archives Italiennes de Biologie 1999, Vision Research 1999) | cut-off introduced in the band-pass of the ERG response ([6]; after intravenous injection or oral administration, decreased response amplitude in the range 2 to 15 Hertz) | cardiac efficiency [7] |
| --- | --- | --- | --- | --- | --- | --- | --- | --- | --- | --- | --- | --- | --- | --- | --- | --- | --- | --- |
| COc1ccc(CCN2CCC[C@H](CN3CCc4cc(OC)c(OC)cc4CC3=O)C2)cc1OC [cilobradine, (+)-3-[(N-(2-(3,4-dimethoxy-phenyl)-ethyl)-piperidin-3-(S)-yl)-methyl]-7,8-dimethoxy-1,3,4,5-tetrahydro-2H-3-benzazepin-2-one] | about 75% | no visual effect can be detected | 364 beats per min. | 316 beats per min. | 270 beats per min. | 285 beats per min. | 260 beats per min. | without visual side-effects | no effect on the ERG can be detected | selectively block |  |  |  |  |  |  |  |  |
| COc1ccc(CCN(C)CCCN2CCc3cc(OC)c(OC)cc3CC2=O)cc1OC [zatebradine] |  |  |  |  |  |  |  |  |  | selectively block | about 44% | reduces the amplitude of the response to stimuli of frequency above 1 Hz and shift the corresponding phase lags | visual response is back to normal | 333 beats per min. | a reduction of the amplitude of the response to stimuli of frequency above 1 Hz and a shift of the corresponding phase lags is observed | reduces the amplitude of the response to stimuli of frequency above 1 Hz | about 2 Hertz | improved cardiac efficiency |
